This passage reports IC50 results from patent US20250179073A1, “TRICYCLIC HETEROCYCLE COMPOUNDS AS IAP ANTAGONISTS” (Ascentage Pharma (Suzhou) Co., Ltd., priority 2022, published 2025).

The subject of test [1] is MDA-MB-231 cells. The test is described as follows: Cell proliferation assay (CellTiter-Glo), MDA-MB-231. In kind it is cell-based. The settings on record: Homo sapiens, MDA-MB-231, 72 h, 72 h treatment, Celltiter-Glo luminescence. The essentials:
(§1)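 Compounds tested over ten concentrations ([…]) for 72 h on EVSA-T cells in MEM/10% FBS and MDA-MB-231 cells in RPMI-1640/10% FBS, seeded at 10000/well. Luminescent CellTiter-Glo readout; IC50 fitted after normalisation to controls.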

Test [2] deals with EVSA-T cells. The test is described as follows: Cell proliferation assay (CellTiter-Glo), EVSA-T. The test is classed as cell-based. The settings on record: Homo sapiens, EVSA-T, 72 h, 72 h treatment, Celltiter-Glo luminescence. The essentials: as §1

Regarding `C[C@@H]1CN(CC(=O)N2CC(C)(C)c3c2cc(Cc2ccc(F)cc2)n2ncnc32)[C@@H](CN2CCOC[C@H]2C)CN1` [Example 25, 1-(5-(4-fluorobenzyl)-9,9-dimethyl-8,9-dihydro-7H-pyrrolo[3,2-c][1,2,4]triazolo[1,5-a]pyridin-7-yl)-2-((2R,5R)-5-methyl-2-(((R)-3-methylmorpholino)methyl)piperazin-1-yl)ethan-1-one], the IC50 in test [1] was determined as 84 nM; in test [2], 11 nM.
The matching figures for `CC(=O)Nc1nc2c(Cc3ccc(F)cc3)cc3c(n2n1)C(C)(C)CN3C(=O)CN1C[C@@H](C)NC[C@@H]1CN1CCOC[C@H]1C` [Example 29, N-(4-(4-fluorobenzyl)-8,8-dimethyl-6-(2-((2R,5R)-5-methyl-2-(((R)-3-methylmorpholino)methyl)piperazin-1-yl)acetyl)-7,8-dihydro-6H-pyrrolo[2,3-e][1,2,4]triazolo[1,5-a]pyridin-2-yl)acetamide]: 100 nM and 10 nM.
Taken in the same sequence, the figures for `C[C@@H]1CN(CC(=O)N2CC(C)(C)c3c2cc(Cc2ccc(F)cc2)c2nc(N)nn32)[C@@H](CN2CCOC[C@H]2C)CN1` [Example 30, 1-(2-amino-4-(4-fluorobenzyl)-8,8-dimethyl-7,8-dihydro-6H-pyrrolo[2,3-e][1,2,4]triazolo[1,5-a]pyridin-6-yl)-2-((2R,5R)-5-methyl-2-(((R)-3-methylmorpholino)methyl)piperazin-1-yl)ethan-1-one] were 16 nM and 3 nM.
As for `C[C@@H]1CN(CC(=O)N2CC(C)(C)c3c2cc(Cc2ccc(F)cc2)c2nc(C(N)=O)nn32)[C@@H](CN2CCOC[C@H]2C)CN1` [Example 31, 4-(4-fluorobenzyl)-8,8-dimethyl-6-(2-((2R,5R)-5-methyl-2-(((R)-3-methylmorpholino)methyl)piperazin-1-yl)acetyl)-7,8-dihydro-6H-pyrrolo[2,3-e][1,2,4]triazolo[1,5-a]pyridine-2-carboxamide], the IC50 in test [1] came out at 370 nM; in test [2], 3 nM.
